Test results taken from PubChem BioAssay AID2305 (GlaxoSmithKline (GSK), 2010).

Test system: P. falciparum 3D7 growth, pLDH absorbance
Test: P. falciparum 3D7 growth inhibition, dose response, strain 3D7 (AID 2305)

In order of rising IC50:
1. CCN1CCCC(Nc2ccnc3cc4ccccc4cc23)C1 (stereo not drawn)  100 nM
2. COc1ccc2nccc(NN=Cc3ccccc3)c2c1  110 nM
3. NC1CCN(Cc2ccc(-c3ccc(-c4nc5ccccc5[nH]4)cc3)cc2)C1 (stereo not drawn)  150 nM
4. COc1cc2nc(N3CCC(CNC(=O)c4ccc(-c5ccc(Cl)cc5)cc4)CC3)nc(N)c2cc1OC  150 nM
5. CCOc1c(C)cc(C(F)(F)F)cc1CNCCCNc1cc(=O)c2ccccc2[nH]1  160 nM
6. COc1cc2nc(-c3ccc(Br)cc3)cc(N)c2cc1OC  170 nM
7. Cc1ccc(O)cc1Nc1ccnc2cc(-c3ccc(CN4CCCCC4)o3)ccc12  170 nM
8. CC(Cc1ccc(OCCCCOc2ccccc2)cc1)NCCCn1ccnc1 (stereo not drawn)  170 nM
9. COc1ccc(CNc2nc(NCCc3ccccc3)c3cc(OC)c(OC)cc3n2)cc1OC  180 nM
10. COc1ccc(OCCON)cc1  200 nM
11. CC(=O)Nc1ccc(C(=O)Nc2cccc(-c3ccc(-c4nc5ccc(C(F)(F)F)cc5[nH]4)cc3)c2)cn1  230 nM
12. NC(N)=NN=Cc1c2ccccc2c(Cl)c2ccc(Cl)cc12  230 nM
13. Cc1c(CNCCCNc2nc3ccccc3[nH]2)[nH]c2cc(Cl)cc(Cl)c12  230 nM
14. COc1cc2nccc(Nc3ccc4c(cnn4Cc4cccc(F)c4)c3)c2cc1OC  240 nM
15. C=CCC(C(=O)Nc1ccnc2ccc(OC)cc12)C1CCN(CCCCCCC)CC1 (stereo not drawn)  240 nM
16. COC(=O)c1cccc(CNCc2ccc(-c3ccc(-c4nc5ccc(F)cc5[nH]4)cc3)cc2)c1  240 nM
17. CC(C)N(Cc1ccccc1)C(=O)CN1C(=O)COc2ccc(S(=O)(=O)N3CCCCCC3)cc21  250 nM
18. O=C(Nc1cccc(CN2CCN(Cc3ccc(O)cc3)CC2)c1)c1ccc(Cl)c(Cl)c1  250 nM
19. O=C(Nc1ccc(-c2nc3ccccc3[nH]2)cc1)c1ccc(-c2cccc([N+](=O)[O-])c2)o1  270 nM
20. Cc1nc(-c2cccc(Nc3ccnc4cc(-c5nccs5)ccc34)c2)no1  320 nM
21. CC1Cc2ccccc2N1CC(=O)Nc1cc(C(F)(F)F)ccc1-n1cncn1 (stereo not drawn)  320 nM
22. CC(Cc1ccc(NC(=O)c2ccc(CNCCc3ccccc3)cc2)cc1)NCCc1cccc(Cl)c1 (stereo not drawn)  350 nM
23. Cc1ccccc1C1CCN(C2CCC(NC(=O)c3ccc(-c4cccc(C(F)(F)F)c4)o3)CC2)CC1 (stereo not drawn)  350 nM
24. CC(C)(C)OC(=O)C1CCCN(Cc2ccc(-c3cccc(-c4nc5ccccc5[nH]4)c3)cc2)C1 (stereo not drawn)  360 nM
25. OC(CNCc1ccccc1OCc1ccccc1)c1cccc(C(F)(F)F)c1 (stereo not drawn)  360 nM
26. Cc1cccc2[nH]c(-c3cccc(-c4cccc(CNCc5ccccc5)c4)c3)nc12  390 nM
27. O=C(Nc1ccc(N2CCCCC2)c(Cl)c1)c1ncn[nH]1  450 nM
28. CN(C)CCNCc1ccc(-c2ccc(-c3nc4ccc(F)cc4[nH]3)cc2)cc1  470 nM
29. COC(=O)c1cccc(CNCc2cccc(-c3ccc(-c4nc5ccccc5[nH]4)s3)c2)c1  490 nM
30. CC(Nc1nc(Nc2ccc(F)cc2)nc(SCC(N)=O)n1)c1ccccc1 (stereo not drawn)  500 nM
31. C/C(=C\C(=O)NC1CC1)c1ccccc1OCc1ccccc1  500 nM
32. Cc1nn(C2CCS(=O)(=O)C2)c(C)c1C1Nc2ccccc2C(=O)N1Cc1ccc2c(c1)OCO2 (stereo not drawn)  510 nM
33. COc1ccc2nccc([C@@H](O)CN3CCC(NCc4nc5cc(F)c(F)cc5[nH]4)CC3)c2c1  530 nM
34. Cc1cccc2[nH]c(-c3ccc(-c4cccc(NC(=O)Nc5cccc(C#N)c5)c4)cc3)nc12  540 nM
35. COc1cccc(C=NNc2cc(C)nc3c(OC)cccc23)c1  580 nM
36. Fc1cccc(COc2ccc(Nc3ncnc4cc(/C=C/[C@@H]5CCCN5)sc34)cc2Cl)c1  590 nM
37. CC(=O)Nc1ncc(C(=O)Nc2cccc(-c3ccc(-c4nc5ccc(C(F)(F)F)cc5[nH]4)cc3)c2)s1  590 nM
38. O=C(Nc1ccc(OC2CCN(Cc3ccsc3)CC2)c(Cl)c1)c1cccs1  600 nM
39. O=C(Nc1ccc2nc3n(c(=O)c2c1)CCCCC3)C(=O)N1CCN(c2ccc(F)cc2)CC1  640 nM
40. CS(=O)(=O)CCNCc1ccc(-c2ccc3c(Nc4ccc(Cl)cc4F)ccnc3c2)o1  670 nM
41. CC(C)(C)COC(=O)c1ccc(NC(=O)N[C@@H](Cc2ccc(O)cc2)C(=O)NC2CCN(Cc3ccc(O)cc3)C2)cc1 (stereo partly drawn)  670 nM
42. COCCNCc1ccc(-c2ccc(CNC3CCN(Cc4ccccc4)CC3)cc2)cc1  670 nM
43. Cc1ccc(C)c(NC(=O)NC2CCN(c3ccnc(Nc4ccc(F)cc4)n3)C2)c1 (stereo not drawn)  680 nM
44. CCOc1cc(NCCCNc2ncc([N+](=O)[O-])cc2C)nc2ccccc12  690 nM
45. N#Cc1cccc(C(=O)Nc2cccc(-c3ccc(C(=O)Nc4cccnc4)cc3)c2)c1  690 nM
46. O=C(/C=C/c1ccccc1Cl)NC1CCC(CN2[C@@H]3CC[C@H]2CC(c2c[nH]c4ccccc24)C3)CC1 (stereo partly drawn)  710 nM
47. S=C(NN=Cc1ccccn1)NC1C[C@H]2C=C[C@@H]1C2 (stereo partly drawn)  720 nM
48. O=C(/C=C/c1ccc(Cl)c(Cl)c1)NCCCCCN1CCC(NC(=O)Nc2cc(Cl)cc(Cl)c2)CC1  720 nM
49. CCC(=O)c1ccc(-c2ccc(=O)n(CC(=O)N(CCN(CC)CC)Cc3ccc(-c4ccc(C(F)(F)F)cc4)cc3)n2)cc1  720 nM
50. Cc1cnc(CS(=O)c2nc3ccc(C(F)(F)F)cc3[nH]2)cc1OCc1ccccc1 (stereo not drawn)  740 nM
51. COc1cc2c(cc1OC)CC(NCCCCCCNCCc1ccc(Cl)cc1)CC2 (stereo not drawn)  740 nM
52. CCOc1cccc(C2c3c(oc4ccccc4c3=O)C(=O)N2CCN(CC)CC)c1 (stereo not drawn)  750 nM
53. COc1ccc(/C=C/C(=O)Nc2ccc(-c3ccncc3)cc2)cc1CCCN(C)C  750 nM
54. COc1cccc(OCC2CCCN(CCCCNC(=O)c3ccc(NC(=O)c4ccc(Cl)cc4)cc3)C2)c1 (stereo not drawn)  750 nM
55. NCC1CCCN1Cc1ccc(-c2cccc(-c3nc4ccc(F)cc4[nH]3)c2)cc1 (stereo not drawn)  750 nM
56. CC(=O)Nc1cccc(C(=O)Nc2cccc(-c3ccc(-c4nc5ccc(F)cc5[nH]4)cc3)c2)c1  760 nM
57. CN1CCN(Cc2cc3cc(NC(=O)/C=C/c4ccc(Cl)cc4)ccc3s2)CC1  770 nM
58. O=C(CN1CCN(S(=O)(=O)C=Cc2ccccc2)CC1)Nc1cc(C(F)(F)F)ccc1Cl  780 nM
59. COc1cccc(CN2CCN(C(c3ccccc3)c3ccccc3)CC2)c1O  780 nM
60. CC[C@H](C)CNC(=O)c1cccc(-c2ccc(CN3CCC(N4CCCC4)CC3)cc2)n1  790 nM
61. Cn1nc(-c2ccccc2F)c2cc(C(=O)NC3CCN(Cc4ccccc4)CC3)sc21  790 nM
62. COc1ccc(-c2cccc(NC(=O)c3cccc(Cl)c3)c2)cc1CN1CCNCC1  800 nM
63. CCN(Cc1ccc(-c2ccc(C(F)(F)F)cc2)cc1)C(=O)Cn1c(SCc2cccc(F)c2F)cc(=O)c2cc(CN3CCCCC3)ccc21  800 nM
64. CCc1ccc(-n2cc(C(=O)c3cc(Br)ccc3O)cc(C#N)c2=O)cc1  800 nM
65. O=C(Nc1cccc(N2CCC(NCCCc3ccncc3)CC2)c1)c1cccc(C(F)(F)F)c1  850 nM
66. CC1CN(Cc2cccc(-c3ccc(-c4nc5ccccc5[nH]4)cc3)c2)CC(C)O1 (stereo not drawn)  860 nM
67. CN1CCC(N(Cc2ccc(-c3ccc(Cl)cc3)cc2)C(=O)Cn2c(CCc3cccc(F)c3F)cc(=O)c3ccccc32)CC1  860 nM
68. Nc1c(Cl)cc(C(O)CNCCCCCCCCCc2ccccn2)cc1Cl (stereo not drawn)  860 nM
69. COc1ccc2nccc([C@@H](O)CN3CCC(NCc4cnc5c(c4)NC(=O)CS5)CC3)c2c1  860 nM
70. CC(C)N(Cc1ccc(-c2ccc(C(F)(F)F)cc2)cc1)C(=O)Cn1c(SCc2cccc(F)c2F)cc(=O)c2cc(CN3CCCCC3)ccc21  870 nM
71. c1ccc(C(OCCC2CCN(Cc3cccc4cccnc34)CC2)c2ccccc2)cc1  870 nM
72. Cc1cc(NC(=O)c2cccs2)ccc1OC1CCN(Cc2ccccc2)CC1  870 nM
73. CN(C)c1ccc(CN2CCC(CNC(=O)c3cc(-c4cccc(C(F)(F)F)c4)cs3)C2)cc1 (stereo not drawn)  880 nM
74. COc1c(C2CCN(CCCCNC(=O)c3cc(-c4ccc(Cl)cc4)oc3C)CC2)ccc2c1CCCC2  880 nM
75. O=C(Cn1c(CCc2cccc(F)c2F)cc(=O)c2cccnc21)N(CCN1CCCC1)Cc1ccc(-c2ccc(C(F)(F)F)cc2)cc1  890 nM
76. Brc1ccccc1CNc1ccnc(NCCn2ccnc2)n1  900 nM
77. N#Cc1cncc(-c2nc3c(N4CCN(c5cnccn5)CC4)cccc3n2CCNCc2ccccc2)c1  910 nM
78. Oc1ccc(CN2CCN(CCOC(c3ccc(F)cc3)c3ccc(F)cc3)CC2)cc1Cl  940 nM
79. O=C(NCC1CCC(C(=O)NC2CCCc3ccccc32)CC1)c1ccc(O)c(-c2cccc([N+](=O)[O-])c2)c1 (stereo not drawn)  940 nM
80. O=C(Nc1nc(-c2ccccn2)cs1)c1ccccc1COc1ccccc1  970 nM
81. OC(CNCc1cccc(Oc2ccc(Cl)cc2)c1)c1cccc(C(F)(F)F)c1 (stereo not drawn)  970 nM
82. O=C(Nc1ccc(Cl)c(Cl)c1)N(Cc1ccccc1Br)C1CCNCC1  1030 nM
83. O=C(Nc1cccc(-c2ccc(-c3nc4ccccc4[nH]3)cc2)c1)c1cccnc1  1040 nM
84. CCN(CC)CCCC(C)N=C(Nc1ccc(C#N)cc1O)Nc1ccccc1Br (stereo not drawn)  1040 nM
85. O=C(NCc1cccc(F)c1)Nc1cccc(-c2ccc(-c3nc4ccc(F)cc4[nH]3)cc2)c1  1050 nM
86. Cc1ccc(C)c2sc(N(CCCn3ccnc3)C(=O)C=Cc3cccs3)nc12  1060 nM
87. Clc1ccc(-c2[nH]c3ccccc3c2CN2CCC(N3CCCCC3)CC2)cc1  1060 nM
88. CCNC(=O)Nc1ccc(-c2ccc(-c3nc4c(C)cccc4[nH]3)s2)cc1  1070 nM
89. COc1cccc(C(=O)Nc2ccc(S(=O)(=O)c3cc4c(cc3OC)CCN(C)CC4)cc2)c1  1100 nM
90. CCNC(=O)c1ccc(-n2nc(C)cc2-c2ccccc2)cc1  1120 nM
91. COc1cc(NC(=O)c2cccc([N+](=O)[O-])c2)cc(S(=O)(=O)c2ccc(Cl)cc2)c1  1130 nM
92. CNCCNCc1ccc(-c2cccc(-c3nc4ccc(F)cc4[nH]3)c2)cc1  1130 nM
93. COc1cc(C(=O)NC2CC(C)(C)N(C)C(C)(C)C2)ccc1-c1cc2cc(Cl)c(Cl)cc2[nH]1  1140 nM
94. Cc1cc(NCCC(=O)NCCOc2ccccc2)nc(NCCc2ccccc2)n1  1230 nM
95. CC(C)Cc1c(O)nc(SCCN2CCOCC2)[nH]c1=O  1260 nM
96. COc1ccccc1CCNC(=O)c1cc(Br)cc(N2CCN(c3ccncc3)CC2)c1  1270 nM
97. O=C(Nc1ccc(-c2nc3ccccc3[nH]2)cc1)C1CCN(Cc2ccccc2)CC1  1760 nM
98. CCn1c(-c2cc(C)on2)nc2cnc(Oc3ccc(C(=O)N4CC(=O)N(C)C4C(C)(C)C)cc3)cc21 (stereo not drawn)  1820 nM
